Values of other authors, collected in US20030232369A1, “Molecular structure of RNA polymerase II” (priority 2002, published 2003).

Assays:
pol II [1] = test system: pol II
pol II [2] = conditions: relative to α-amanitin

Compound | effect on transcription (pol II [1]) | influence of α-amanitin binding on the affinity of pol II for nucleoside triphosphates (pol II [1]) | rate of translocation of pol II on DNA (pol II [1]; after addition of α-amanitin to a transcribing pol II complex) | reduction of inhibition (fold less inhibitory than α-amanitin) (pol II [2])
CC[C@H](C)[C@@H]1NC(=O)CNC(=O)[C@@H]2Cc3c([nH]c4cc(O)ccc34)[S+]([O-])C[C@@H](NC(=O)CNC1=O)C(=O)N[C@@H](CC(N)=O)C(=O)N1C[C@H](O)C[C@H]1C(=O)N[C@@H]([C@@H](C)[C@@H](O)CO)C(=O)N2 (stereo in doubt) [α-amanitin] | blocks both transcription initiation and elongation | little if any influence | reduced from several thousand to only a few | –
CCC(C)C1NC(=O)CNC(=O)C2Cc3c([nH]c4cc(O)ccc34)[S+]([O-])CC(NC(=O)CNC1=O)C(=O)NC(CC(N)=O)C(=O)N1CC(O)CC1C(=O)NC(C(C)CC)C(=O)N2 (centres unmarked) [amanullin] | – | – | – | about 4 fold
proamanullin | – | – | – | about 20,000 fold
